Results from patent publication US20090281093A1, “ANTI-INFLAMMATORY COMPOUNDS” (C.T.G. PHARMA S.R.L., priority 2005, published 2009).

Experiment: Activity and safety: five-day once daily gavage treatment of rats, deaths and autopsy of the gastrointestinal tract
Type: in vivo
Details: male rats, once daily by gavage for five days, diclofenac 20 mg/kg, compound of example 1 36 mg/kg; for % deaths: 10 animals/group; for % gastrointestinal ulcer: autopsy at fifth day 6 hr after treatment
Procedure: Thirty male rats (150-200 g) were divided into three groups of 10 animals/group and treated with vehicle, diclofenac (20 mg/kg) and the compound of example 1 (36 mg/kg) for five days once daily by gavage. The vehicle consisted in 1 mL of acidified aqueous solution. At the fifth day, survival animals were sacrificed 6 hr after the treatment, by an overdose of ether, and autopsied to detect any pathological changes, particularly in the gastrointestinal tract. Prostaglandin E2 was evaluated in the liver homogenate by standard enzyme immunoassay procedure as described by Warner T D et al. (J.P.E.T. 2004, 310, 642-7).

Row | SMILES | % deaths | % gastrointestinal ulcer
1 | O=C(O)Cc1ccccc1Nc1c(Cl)cccc1Cl [Diclofenac] | 70% | 100%
2 | O=C(Cc1ccccc1Nc1c(Cl)cccc1Cl)Oc1ccc(-c2cc(=S)ss2)cc1 [Compound example 1, 2-[(2,6-dichlorophenyl)amino]benzeneacetic acid 4-(3H-1,2,dithiole-3-thione-5-yl)-phenyl ester] | 0% | 0%
